The numbers were not newly measured in patent US11890375B2, “Ophthalmic solution of difluprednate” (SUN PHARMA ADVANCED RESEARCH COMPANY LIMITED, priority 2015, dated 2024), which cites them from elsewhere.

As to `CCCC(=O)O[C@]1(C(=O)COC(C)=O)CC[C@H]2[C@@H]3C[C@H](F)C4=CC(=O)C=C[C@]4(C)[C@@]3(F)[C@@H](O)C[C@@]21C` [Difluprednate], the “solubility in aqueous vehicle” value is “practically insoluble”.
